Reference: patent US6660864B2, “Polymorphic forms of 6-[4-(1-cyclohexyl-1H-tetrazol-5-yl)butoxy]-3,4-dihydro-2(1H)-quinolinone” (priority 2001, dated 2003)

Assays:
[1] = Bioavailability of cilostazol polymorphic form; format: in vivo; conditions: Form A as prepared by the procedures of the '479 patent
[2] = Aqueous solubility of cilostazol polymorphic form; format: physicochemical; conditions: Form A as prepared by the procedures of the '479 patent
[3] = Relative solubility suggested by DSC thermogram (lower melting point, crystal packing forces); format: physicochemical; conditions: suggested by the lower melting point in DSC (FIG. 8)
Excerpt: (§1) Characterization of Form A of cilostazol, Form B of cilostazol, and Form C of cilostazol was further completed using DSC thermograms, shown in FIGS. 3, 4, and 5, respectively, with DSC thermograms for combinations of Form A and Form B; Form B and Form C; and Forms A, B, and C are shown in FIGS. 6, 7, and 8 respectively. DSC data were generated using a Mettler-Toledo DSC 821^e (Columbus, Ohio) with a Julabo FT900 intercooler chiller (Julabo Company; Allentown, Pa.). In general, samples were analyzed in a vented, sealed aluminum pan. Because the endothermic peak may vary depending upon the rate of heating and the calibration and precision of the instrument, with the amount of peak variation dependent upon the heating rate used, all thermograms included herein were run under the same, consistent conditions: heating at 10° C. per minute under a nitrogen purge at 40 mL/minute.
FIG. 8 illustrates a DSC thermogram for the combination of Form A, Form B and Form C having a second heating cycle with a maximum temperature of about 110° C. with a holding time of about 30 minutes. The peaks in the third heating cycle show a Form A to Form B to Form C peak area ratio of approximately 8:2:1, respectively, with the relative amount of Form A, Form B and Form C further variable on the heat of enthalpy of each polymorphic form.

[4] = Stability of the crystalline form; format: physicochemical
[5] = DSC heating of disturbed/stressed sample: solid state phase transformation to Form A; format: physicochemical; conditions: sample disturbed (scratching/stressed), DSC from 30° C. to approximately 200° C. at 10° C. per minute
Excerpt: as §1, with “mL/minute. The resultant sample of Example 1A was disturbed with scratching, which caused the cilostazol sample to undergo a solid state phase transformation at approximately 119° C. followed by an endotherm of melt at approximately 160° C. (Form A) during heating by DSC from 30° C. to approximately 200° C. at 10° C. per minute. When the sample is stressed and reheated (as detailed in Example 2A), the sample undergoes a solid state phase transformation at approximately 147° C. followed by an endotherm of melt at about 160° C. […]” for “mL/minute.”

Which results are given for `O=C1CCc2cc(OCCCCc3nnnn3C3CCCCC3)ccc2N1` [Form A, 6-[4-(1-cyclohexyl-1H-tetrazol-5-yl)butoxy]-3,4-dihydro-2(1H)-quinolinone]?
bioavailability [1]: low bioavailability; aqueous solubility [2]: low aqueous solubility

Which “solubility relative to Form A” value [3] does the source give for `O=C1CCc2cc(OCCCCc3nnnn3C3CCCCC3)ccc2N1` [Form B, 6-[4-(1-cyclohexyl-1H-tetrazol-5-yl)butoxy]-3,4-dihydro-2(1H)-quinolinone] here?
Its value is “more soluble than Form A”.

And the “stability of the polymorphic form” value [4]?
The value was “stable”.

And the “solid state phase transformation temperature (to Form A)” value ([5]; listed as Example 1A)?
Its value is “approximately 119 °C”.

With `O=C1CCc2cc(OCCCCc3nnnn3C3CCCCC3)ccc2N1` [Form C, 6-[4-(1-cyclohexyl-1H-tetrazol-5-yl)butoxy]-3,4-dihydro-2(1H)-quinolinone] as the molecule, how does the “solid state phase transformation temperature (to Form A)” value ([5]; listed as Example 2A) read?
Its value is “approximately 147 °C”.
